From ChEMBL document CHEMBL3217443, “The Discovery of Novel 10,11-Dihydro-5H-dibenz[b,f]azepine SIRT2 Inhibitors” (Medchemcomm, 2012)
Blank lines part the entries; values can stand above or below the compound they belong to. Activity calls are given as the source filed them. No cut-off for these calls is given here.

Columns and labels:
[1] = target: T1, NAD-dependent protein deacetylase sirtuin-2 (Homo sapiens, UniProt Q8IXJ6); assay: Inhibition of recombinant human full length SIRT2 using fluorescent ZMAL as substrate after 4 hrs by homogeneous fluorescent deacetylase assay
T1 sequence (Q8IXJ6 whole entry): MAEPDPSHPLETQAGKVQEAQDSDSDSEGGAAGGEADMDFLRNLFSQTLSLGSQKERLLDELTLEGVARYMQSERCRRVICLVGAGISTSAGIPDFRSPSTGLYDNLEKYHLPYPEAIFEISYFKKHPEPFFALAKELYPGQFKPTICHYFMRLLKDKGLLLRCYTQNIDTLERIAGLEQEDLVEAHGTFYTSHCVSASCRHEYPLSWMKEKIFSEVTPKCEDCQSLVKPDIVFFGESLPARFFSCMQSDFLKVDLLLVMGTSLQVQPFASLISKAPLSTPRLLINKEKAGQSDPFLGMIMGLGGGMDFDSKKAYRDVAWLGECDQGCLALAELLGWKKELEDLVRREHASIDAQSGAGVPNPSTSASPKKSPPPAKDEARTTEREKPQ

[2] = target: T2, NAD-dependent protein deacetylase sirtuin-1 (Homo sapiens) (UniProt Q96EB6); assay: Inhibition of recombinant human N-tagged GST-SIRT1 fusion protein using fluorescent ZMAL as substrate at 100 uM after 4 hrs by homogeneous fluorescent deacetylase assay
T2 sequence (whole entry): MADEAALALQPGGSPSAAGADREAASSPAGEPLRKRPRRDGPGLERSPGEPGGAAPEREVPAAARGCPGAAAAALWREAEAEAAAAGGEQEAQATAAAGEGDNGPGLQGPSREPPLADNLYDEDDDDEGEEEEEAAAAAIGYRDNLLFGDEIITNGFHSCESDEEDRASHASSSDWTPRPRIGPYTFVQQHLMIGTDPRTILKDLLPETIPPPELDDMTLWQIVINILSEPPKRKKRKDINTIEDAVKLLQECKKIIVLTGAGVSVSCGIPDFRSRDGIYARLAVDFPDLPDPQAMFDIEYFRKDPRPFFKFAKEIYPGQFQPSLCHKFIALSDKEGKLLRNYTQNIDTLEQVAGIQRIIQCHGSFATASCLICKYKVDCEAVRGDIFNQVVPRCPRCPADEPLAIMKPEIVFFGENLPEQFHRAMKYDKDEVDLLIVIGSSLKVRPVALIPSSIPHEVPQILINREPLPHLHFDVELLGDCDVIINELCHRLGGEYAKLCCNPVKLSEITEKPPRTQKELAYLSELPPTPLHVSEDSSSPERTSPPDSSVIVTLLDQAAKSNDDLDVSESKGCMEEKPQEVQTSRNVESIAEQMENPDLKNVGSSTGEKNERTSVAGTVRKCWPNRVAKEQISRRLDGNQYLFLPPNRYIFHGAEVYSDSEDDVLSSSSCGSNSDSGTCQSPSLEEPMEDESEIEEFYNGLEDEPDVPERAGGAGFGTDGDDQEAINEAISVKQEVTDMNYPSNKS

[3] = target: T2, NAD-dependent protein deacetylase sirtuin-1 (Homo sapiens); assay: Inhibition of recombinant human N-tagged GST-SIRT1 fusion protein using fluorescent ZMAL as substrate at 50 uM after 4 hrs by homogeneous fluorescent deacetylase assay
[4] = target: T3, NAD-dependent protein deacetylase sirtuin-2 (Homo sapiens) (UniProt Q8IXJ6); assay: Inhibition of recombinant human full length SIRT2 using fluorescent ZMAL as substrate at 50 uM after 4 hrs by homogeneous fluorescent deacetylase assay
T3 sequence (whole entry): T1 sequence (Q8IXJ6 whole entry)

MCF7 [5] = assay: Cell cycle arrest in human MCF7 cells assessed as accumulation at S phase at 50 uM after 24 hrs by flow cytometry (reference value: 30.8 %); format: functional
[6] = target: T3, NAD-dependent protein deacetylase sirtuin-2 (Homo sapiens); assay: Inhibition of SIRT2 in human MCF7 cells assessed as increase in hyperacetylation of alpha-tubulin up to 50 uM after 24 hrs by Western blot analysis; format: cell-based
MCF7 [7] = assay: Cell cycle arrest in human MCF7 cells assessed as accumulation at G1 phase at 50 uM after 24 hrs by flow cytometry (reference value: 43.5 %); format: functional
[8] = target: T2, NAD-dependent protein deacetylase sirtuin-1 (Homo sapiens); assay: Inhibition of SIRT1 in human MCF7 cells assessed as increase in acetylation of H3-K9 up to 50 uM after 24 hrs by Western blot analysis; format: cell-based
MCF7 [9] = assay: Cell cycle arrest in human MCF7 cells assessed as accumulation at sub-G1 phase at 50 uM after 24 hrs by flow cytometry (reference value: 0.3 %); format: functional
MCF7 [10] = assay: Antiproliferative activity against human MCF7 cells at 30 uM after 24 to 72 hrs; format: functional
[11] = target: T2, NAD-dependent protein deacetylase sirtuin-1 (Homo sapiens); assay: Inhibition of SIRT1 in human MCF7 cells assessed as increase in acetylation of p53 at lys 382 at 50 uM after 24 hrs by Western blot analysis; format: cell-based
MCF7 [12] = assay: Cell cycle arrest in human MCF7 cells assessed as accumulation at G2-M phase at 50 uM after 24 hrs by flow cytometry (reference value: 22.6 %); format: functional
[13] = target: T4, NAD-dependent protein deacetylase sirtuin-1 (Homo sapiens, UniProt Q96EB6)
T4 sequence (Q96EB6 whole entry): T2 sequence (whole entry)
Description: Inhibition of recombinant human N-tagged GST-SIRT1 fusion protein using fluorescent ZMAL as substrate after 4 hrs by homogeneous fluorescent deacetylase assay

[14] = target: T3, NAD-dependent protein deacetylase sirtuin-2 (Homo sapiens); assay: Inhibition of SIRT2 in human MCF7 cells assessed as decrease in phosphorylation of pRB at Ser807/Ser811 at 50 uM after 24 hrs by Western blot analysis; format: cell-based
[15] = target: T2, NAD-dependent protein deacetylase sirtuin-1 (Homo sapiens); assay: Inhibition of recombinant human N-tagged GST-SIRT1 fusion protein using fluorescent ZMAL as substrate at 500 uM after 4 hrs by homogeneous fluorescent deacetylase assay
Homo sapiens = species: Homo sapiens; assay: Selectivity ratio of IC50 for recombinant human N-tagged GST-SIRT1 fusion protein to IC50 for recombinant human full length SIRT2

Compound: CN1c2ccc(C(N)=O)cc2CCc2cc([N+](=O)[O-])ccc21
- IC50 [1]: 77.5 µM
- inhibition [2]: 23%

Compound: CC(C(=O)Nc1cccc(/N=C/c2c(O)ccc3ccccc23)c1)c1ccccc1 (stereo not drawn) [SALERMIDE]
- Activity (MCF7 [5]): 16.4%
- inhibition [6]: Active
- Activity (MCF7 [7]): 56.1%
- IC50 [1]: 45 µM
- inhibition [8]: inactive
- Activity (MCF7 [9]): 1.1%
- Activity (MCF7 [10]): Active
- inhibition [11]: Active
- Activity (MCF7 [12]): 26.4%
- IC50 [13]: 76 µM

Compound: OCc1ccc2c(c1)CCc1cc(CO)ccc1N2
- inhibition [3]: < 25%
- inhibition [4]: < 25%

Compound: NC(=O)c1cccc2c1Nc1ccccc1CC2
- inhibition [3]: < 25%
- inhibition [4]: < 25%

Compound: O=[N+]([O-])c1ccc2c(c1)Nc1ccccc1CC2
- inhibition [3]: < 25%
- inhibition [4]: < 25%

Compound: O=C(Nc1cccc(Br)c1)c1cccc(S(=O)(=O)N2CCCCCC2)c1
- Activity (MCF7 [5]): 20%
- Activity (MCF7 [7]): 54.3%
- inhibition [8]: inactive
- Activity (MCF7 [9]): 0.4%
- inhibition [3]: < 25%
- inhibition [11]: Active
- Activity (MCF7 [12]): 25.3%

Compound: NC(=O)c1ccc2c(c1)CCc1cc(Cl)ccc1N2
- inhibition [3]: < 25%
- inhibition [4]: < 25%

Compound: NC(=O)C1CCCc2c1[nH]c1ccc(Cl)cc21 (stereo not drawn)
- Activity (MCF7 [5]): 10.3%
- Activity (MCF7 [7]): 73.8%
- Activity (MCF7 [9]): 1.2%
- Activity (MCF7 [10]): 50%
- Activity (MCF7 [12]): 15.7%

Compound: N#Cc1ccc2c(c1)CCc1cc(C#N)ccc1N2
- inhibition [3]: < 25%
- inhibition [4]: < 25%

Compound: N#Cc1ccc2c(c1)CCc1cc(C(N)=O)ccc1N2
- inhibition [3]: < 25%
- inhibition [4]: < 25%

Compound: NC(=O)c1ccc2c(c1)CCc1cc(N)ccc1N2
- inhibition [3]: < 25%
- inhibition [4]: < 25%

Compound: N#Cc1ccc2c(c1)CCc1ccccc1N2
- inhibition [3]: < 25%
- inhibition [4]: < 25%

Now from value to compound, other results behind:

- inhibition [3]: < 25%
- inhibition [4]: < 25%
Compound: OCc1ccc2c(c1)CCc1cccc(CO)c1N2

- inhibition [3]: < 25%
- inhibition [4]: < 25%
Compound: NC(=O)c1ccc2c(c1)CCc1cc(C(N)=O)ccc1N2

- inhibition [3]: < 25%
- inhibition [4]: < 25%
Compound: NC(=O)N1c2ccccc2CCc2ccccc21

- IC50 [1]: 100 µM
- inhibition [3]: < 25%
Compound: CC(C)(C)NC(=O)c1ccc2c(c1)CCc1ccccc1N2

- inhibition [3]: < 25%
- inhibition [4]: < 25%
Compound: N#Cc1ccc2c(c1)CCc1cc([N+](=O)[O-])ccc1N2

- IC50 [1]: 29.8 µM
- inhibition [2]: 12%
Compound: CC(C)(C)NS(=O)(=O)c1ccc2c(c1)Nc1ccccc1CC2

- inhibition [3]: < 25%
- inhibition [4]: < 25%
Compound: c1ccc2c(c1)CCc1ccccc1N2

- inhibition [14]: Active
- inhibition [6]: Active
- IC50 [1]: 17.6 µM
- inhibition [15]: 11%
- inhibition [8]: inactive
- Ratio IC50 (Homo sapiens): > 30
- inhibition [11]: inactive
- inhibition [2]: 1%
Compound: NC(=O)c1ccc2c(c1)CCc1cc([N+](=O)[O-])ccc1N2
- Activity (MCF7 [5]): 18%
- Activity (MCF7 [7]): 42.2%
- Activity (MCF7 [9]): 0.9%
- Activity (MCF7 [10]): Active
- Activity (MCF7 [12]): 38.9%

- inhibition [6]: inactive
- inhibition [8]: inactive
- inhibition [11]: Active
Compound: CC(NC(=O)c1ccccc1/N=C/c1c(O)ccc2ccccc12)c1ccccc1 (stereo not drawn) [SIRTINOL]
- Activity (MCF7 [5]): 9.7%
- Activity (MCF7 [7]): 71.5%
- Activity (MCF7 [9]): 0.7%
- Activity (MCF7 [10]): Active
- Activity (MCF7 [12]): 18%

- inhibition [3]: < 25%
- inhibition [4]: < 25%
Compound: O=[N+]([O-])c1ccc2c(c1)CCc1ccccc1N2

- inhibition [3]: < 25%
- inhibition [4]: < 25%
Compound: NC(=O)c1ccc2c(c1)CCc1cccc([N+](=O)[O-])c1N2

- inhibition [3]: < 25%
- inhibition [4]: < 25%
Compound: NC(=O)c1ccc2c(c1)CCc1cccc(CO)c1N2

- inhibition [3]: < 25%
- inhibition [4]: < 25%
Compound: NC(=O)c1ccc2c(c1)CCc1ccccc1N2
